# From patent US6319501A, “Method of immunizing against hepatitis B virus” (Health Research, Inc., priority 1993, dated 2001)
# Like-named read-outs stand apart in the source and are kept apart here. Ends that are not written are not given here.
# Experiments:
# [1] = system: antibodies recognizing the (139-147) segment of the S-protein (reaction with HBsAg); assay: Inhibition of attachment of antibodies recognizing S(139-147) to HBsAg-coated wells (comparative antigenicity of replacement set peptides); format: binding, rabbit
# Protocol: FIG. 1. concerns the relative inhibitory activity of replacement set peptides on the reaction of antibodies recognizing the (139-147) segment of the S-protein with HBsAg. The concentration of each peptide at which the attachment of antibodies to solid phase HBsAg was reduced by 50% (C50) was determined. C50 of the parent peptide (sequence shown on top of the bars) was divided by C50 for each inhibitory peptide and the log10 of the ratio was plotted on the ordinate. Amino acid residues replacing amino acids in the parent sequence are shown on the top of each bar. The sequence numbers of residues being replaced in the parent sequence are shown on the bottom of the bar groups.
# Wells of 96-well polystryene plates (Removawell, Immunolon II, Dynatech Laboratories, Chantilly, Va.) were coated with HBsAg subtype adw (200 μl; 100 μg/ml in 0.01 M Tris HCl pH 8.8) overnight at 20° C. The wells were then coated with a mixture of bovine serum albumin (BSA) and gelatin (10 and 2.5 mg/ml, respectively) in 0.14 M NaCl, 0.01 M Tris, 0.02% NaN3 (TS). […] The diluted antiserum, without added peptides, and normal rabbit serum served as positive and negative controls, respectively. Aliquots of the diluted rabbit sera with or without the peptides (200 μl) were added to the HBsAg-coated wells. After overnight incubation at 25° C., the plates were washed with 200 μl of TS and ^125 I-labeled anti-rabbit IgG (Kirkegaard & Perry Laboratories, Inc., Gaithersburg, Md.; 200,000 cpm diluted 1:1 with TSBG) were added to the wells. After incubation for 2 hours at 37° C., the wells were washed with TS and counted for radioactivity. Radioactivity, corrected for counts corresponding to diluted normal rabbit serum, was plotted against the log10 of the concentration of the respective peptides. […]
# [2] = system: Murine T cells primed with HBsAg, subtype ayr; assay: In vitro proliferation (3H-TdR incorporation) of T cells from Balb/c mice primed with HBsAg subtype ayr (FIG. 3); format: cell-based, mouse (Balb/c)
# Excerpt: FIG. 3. depicts relative T cell-stimulatory activity of replacement set peptides expressed as a percentage of stimulation elicited by the parent peptide. Murine T cells were obtained by nylon wool column purification of Balb/c lymph node cells primed with HBsAg, subtype ayr (Scripps Laboratories, San Diego, Calif.). For comparison, the T cell-stimulatory response to rHBsAg, subtype ad(32,657), HBsAg subtype ayr (54,640), parent peptide (16,073=100%) and media control (330) were examined at optimal concentrations for each antigen. Values shown in parentheses are mean cpms corresponding to ^3 H-TdR incorporation measured in triplicate. Amino acid residues replacing amino acids in the parent sequence are shown at the bottom of the bars.
# (§1) Balb/c mice were immunized in the hind foot pads, either with 0.5 μg of RecombiVax HB or with HBsAg subtype ayw (Scripps Laboratories), on day 0, 14 and 21. One week after the last injection, the animals were sacrificed and the popliteal lymph nodes were collected. The nodes were teased apart and the dispersed cells were then washed twice in RPMI-1640 medium without any serum supplement and once in RPMI medium containing 10% bovine calf serum. A cell count was made and the cell concentration was adjusted so that T cell enrichment was then done at 1×10^8 cells/0.6g of packed nylon wool column. […]
# [3] = system: Murine T cells primed to rHBsAg, subtype ad; assay: In vitro proliferation (3H-TdR incorporation) of T cells from Balb/c mice primed with rHBsAg subtype ad (FIG. 4); format: cell-based, mouse (Balb/c); details: mice primed with HBsAg ad
# Excerpt: FIG. 4. depicts relative T cell-stimulatory activity of replacement set peptides expressed as a percentage of stimulation elicited by the parent peptide. Murine T cells were obtained by nylon wool column purification of Balb/c lymph node cells primed to rHBsAg, subtype ad (RecombiVax HB, Merck Sharp & Dohme). For comparison the T cells-stimulatory response to rHBsAg, subtype ad (97,024), rHBsAg subtype ayr (64,878), parent peptide (44,916=100%) and media control (1,873) was examined at optimal concentrations for each antigen. Values shown in parentheses are mean cpms corresponding to ^3 H-TdR incorporation measured in triplicate. Amino acid residues replacing amino acids in the parent sequence are shown at the bottom of the bars.
# as §1
# [4] = system: Human peripheral blood mononuclear cells (PBMC); assay: In vitro proliferation (3H-TdR incorporation) of human PBMC / T cells from rHBsAg vaccinees (FIG. 5); format: cell-based; details: humans immunized with recombinant HBsAg vaccine
# Excerpt: Human peripheral blood mononuclear cells (PBMC) were obtained from volunteers who had received the full course of the rHBsAg vaccine (Merck Sharp & Dohme). Donor 1 .box-solid. Donor 2 z1 Donor 3 .quadrature. Donor 4 z2 For comparison average T cell-stimulatory response to rHBsAg subtype ad (146,478), parent peptide (96,930=100%) and media control (1,147) was examined at optimal concentrations for each antigen. Values expressed in parentheses are mean cpms of ^3 H-TdR incorporation of triplicate wells. Amino acid residues replacing amino acids in the parent sequence are shown at the bottom of the bars.
# Sixty ml of blood was collected (in heparin containing syringes) from the antecubital vein of individuals who were vaccinated with a recombinant hepatitis B vaccine (RecombiVax HB; Merck, Sharp and Dohme). […]
# Peripheral blood mononuclear cells were cultured in 96 well flat bottom plates at a density of 2.5×10^5 cells/100 μl per well in RPMI-1640 medium supplemented with 2mM glutamine, 100 units/ml penicillin, 100 μg/ml streptomycin, 50 μg/ml gentamycin and 10% human AB-positive serum. […] Proliferation, as measured by thymidine incorporation, was determined by liquid scintillation spectroscopy. Results are expressed as mean counts per minute (cpm) for triplicate cultures.
# anti-HBs = details: cited from earlier work
# native HBsAg = details: after polymerization with glutaraldehyde; cited from earlier work
# [5] = system: T-helper (Th) lymphocytes; details: mice immunized with HBsAg; linear and cyclic forms; cited from earlier work
# [6] = system: T-helper (Th) lymphocytes; details: humans immunized with HBsAg; linear and cyclic forms; cited from earlier work
Substance,"inhibition of attachment of anti-HBs to HBsAg-coated wells, preliminary results (in words) [1]",T-cell proliferative response / tolerance of replacement (in words) [2],T-cell proliferative response / tolerance of replacement (in words) [3],further results
CTKPSDGNC,inhibited the attachment of anti-HBs to HBsAg-coated wells,much more effective in eliciting proliferation of T-cells from mice immunized with HBsAg ayr in comparison with the ad-specific peptide,most tolerated,"IC50 ([1]; HBsAg-coated wells, rabbit antiserum to S(135-155) diluted 150-fold, read-out: concentration of peptide at which a 50% inhibition of anti-HBs attachment occurred (C50)): 56 nM; T-cell proliferative response / tolerance of replacement (in words) [4]: responded virtually equally"
"CTKPTDGNC [S(139-147) peptide with threonine at position 143, corresponding to S-protein subtype ad]",inhibited the attachment of anti-HBs to HBsAg-coated wells,most favored replacement,much more effective in eliciting proliferation of T-cells from mice immunized with HBsAg ad in comparison with the ay specific peptide,
cyclic peptide corresponding to the sequence S(139-147): cyclic peptide S(139-147) from the S-protein subtype adw with a disulfide bond between residues (139-147),,,,binding / affinity to anti-HBs (in words) (anti-HBs): affinity similar to that determined for the reaction between native HBsAg and anti-HBs; antibodies elicited (in words) (native HBsAg): elicited antibodies reactive with native HBsAg
"peptide S(139-147): peptide S(139-147) in both linear and cyclic forms (LYLPAGGSS; also: linear and cyclic forms; UniProt P03141 139-147, looked up, fragment)",,,,proliferation of T-helper lymphocytes (in words) [5]: elicited the proliferation of T-helper (Th) lymphocytes; proliferation of T-helper lymphocytes (in words) [6]: elicited the proliferation of T-helper (Th) lymphocytes
